Measurements reported in publication PMC6205183 (Oncotarget, 2018).
“Also recorded” adds a separate entry of the source.

What was measured:
K562 DOX-R cells = assay: Viability assay (Annexin V/7AAD), K562 DOX-R; type: cell-based, human; details: for IC50 / viability on co-treatment with ponatinib: K562 DOX-R; for IC50: read-out: TKI viability assay IC50; for viability on co-treatment with ponatinib: compared to control line
Protocol: (§1) Cells were removed from drug-containing culture medium, washed and re-cultured in fresh media (with testing drug) for 72 hours. Cells then were stained with 7-Amino-actinomycin D (7AAD) and Annexin V-PE. Flow cytometry (BD LSRFortessaTM X-20 with high-throughput platform) was performed to determine cell viability: cells stained positive for Annexin V-PE and 7AAD were considered to be apoptotic or dead respectively. The data were analysed using FCS Express software (DeNovo Software, Los Angeles, California, USA).

K562-R cells = assay: Viability assay (Annexin V/7AAD), K562-R; type: cell-based, human; details: for IC50 / viability on co-treatment with ponatinib: K562-R; for IC50: read-out: TKI viability assay IC50; for viability on co-treatment with ponatinib: compared to control line
Protocol: as §1

K562 T315I-R cells = assay: cells; details: Homo sapiens, K562, read-out: TKI viability assay IC50
Protocol: as §1

K562 DOX 55D-R cells = assay: cells; details: Homo sapiens, K562, read-out: TKI viability assay IC50
Protocol: as §1

Axl [1] = tested on: Axl; design: method as in PMID 20080645, PMID 16230391, PMID 20603615, PMID 20145120; details: cited from earlier work
Axl [2] = details: no reference given; cited from earlier work
[3] = tested on: K562-R-scramble CTL cells; assay: Viability assay, scramble shRNA K562-R; type: cell-based, human; details: K562-R scrambled shRNA control, 10 nM ponatinib, 72 hours, n=3
Protocol: (§2) Stable AXL knock-down K562-R-AXL KD, and K562 DOX-R-AXL KD cell lines were generated, as well as the scramble control lines K562-R-scramble CTL, and K562 DOX-R-scramble CTL.
as §1
(§3) The GFP level and Axl expression level were measured after fluorescence-activated cell sorting (FACS) and before each experiment to ensure purity.

K562 DOX cells = assay: Viability assay (Annexin V/7AAD), K562 DOX control; type: cell-based, human; details: 200 nM ponatinib, three days
Protocol: (§4) Flow cytometry (BD LSRFortessaTM X-20 with high-throughput platform) was performed to determine cell viability: cells stained positive for Annexin V-PE and 7AAD were considered to be apoptotic or dead respectively. […]

K562-R-AXL KD cells = assay: Viability assay, AXL knock-down K562-R; type: cell-based, human; details: 10 nM ponatinib, 72 hours, n=3
Protocol: as §2, §1, §3

[4] = tested on: K562 DOX-R-scramble CTL cells; assay: Viability assay, scramble shRNA K562 DOX-R; type: cell-based, human; details: K562 DOX-R scrambled shRNA control, 10 nM ponatinib, 72 hours, n=3
Protocol: as §2, §1, §3

K562 cells = assay: Viability assay (Annexin V/7AAD), K562 control; type: cell-based, human; details: 200 nM ponatinib, three days
Protocol: as §4

K562 DOX-R-AXL KD cells = assay: Viability assay, AXL knock-down K562 DOX-R; type: cell-based, human; details: 10 nM ponatinib, 72 hours, n=3
Protocol: as §2, §1, §3

[5] = 45 mg once daily; cited from earlier work

Compound Cc1cn(-c2cc(NC(=O)c3ccc(C)c(Nc4nccc(-c5cccnc5)n4)c3)cc(C(F)(F)F)c2)cn1 [nilotinib] has an IC50 (K562 DOX-R cells; Homo sapiens) greater than 1000 nM, an IC50 (K562-R cells; Homo sapiens, K-562R) greater than 1000 nM and an IC50 (K562 T315I-R cells) greater than 1000 nM. It also gave an IC50 (K562 DOX 55D-R cells) greater than 1000 nM.

For Nc1nc(Nc2ccc3c(c2)CCC(N2CCCC2)CC3)nn1-c1cc2c(nn1)-c1ccccc1CCC2 (stereo not drawn) [R428], the “viability on co-treatment with ponatinib” value (K562 DOX-R cells; 1 μM R428 + 200 nM ponatinib, n=4, p=0.02) is listed as “significantly reduced; also recorded: induced cell death significantly”, the “viability on co-treatment with ponatinib” value (K562-R cells; 1 μM R428 + 200 nM ponatinib, n=3, p=0.02) is listed as “significantly reduced; also recorded: induced cell death significantly” and the “specificity in targeting Axl over the other TAM family members (Mer and Tyro3)” value (Axl [1]) is listed as 50 to 100 fold.

In the case of CCOc1ccn(-c2ccc(F)cc2)c(=O)c1C(=O)Nc1ccc(Oc2ccnc(N)c2Cl)c(F)c1 [BMS-777607], the “potency against Axl relative to MET” value (Axl [2]) is listed as 3 times, the “viability on co-treatment with ponatinib” value (K562 DOX-R cells; 12.5 μM BMS777607 + 200 nM ponatinib, n=4, p<0.01) is listed as “significantly reduced; also recorded: induced cell death significantly” and the “viability on co-treatment with ponatinib” value (K562-R cells; 12.5 μM BMS777607 + 200 nM ponatinib, n=3, p=0.03) is listed as “significantly reduced; also recorded: induced cell death significantly”.

In the case of Cc1ccc(C(=O)Nc2ccc(CN3CCN(C)CC3)c(C(F)(F)F)c2)cc1C#Cc1cnc2cccnn12 [ponatinib, 3-[2-(imidazo[1,2-b]pyridazin-3-yl)ethynyl]-4-methyl-N-{4-[(4-methylpiperazin-1-yl)methyl]-3-(trifluoromethyl)phenyl}benzamide], the viability at 0.2 µM (K562 DOX-R cells; Homo sapiens, K562, 72 h) is reported as greater than 75%, the reduction in viability [3] is reported as 22% and the “sensitivity to ponatinib (viability)” value (K562 DOX cells) is reported as “demonstrated sensitivity”. The reduction in viability (K562-R-AXL KD cells) was 68%, the viability at 0.2 µM (K562-R cells; Homo sapiens, K-562R, 72 h) was greater than 75% and the reduction in viability [4] was 16%. The “sensitivity to ponatinib (viability)” value (K562 cells) was “demonstrated sensitivity”, the reduction in viability (K562 DOX-R-AXL KD cells) was 53% and the “medium human peak plasma level” value [5] was 145 nM. The “medium human trough plasma level” value [5] was 64 nM.

Cc1nc(Nc2ncc(C(=O)Nc3c(C)cccc3Cl)s2)cc(N2CCN(CCO)CC2)n1 [dasatinib] showed an IC50 (K562 DOX-R cells; Homo sapiens) greater than 200 nM, an IC50 (K562-R cells; Homo sapiens, K-562R) greater than 200 nM and an IC50 (K562 T315I-R cells) greater than 200 nM. For the same compound, the IC50 (K562 DOX 55D-R cells) was greater than 200 nM.
